What all share (format): cell-based
For experiment [1], the target named is T1, RARα (Homo sapiens, UniProt P10276).
T1 construct: gal4 (fusion partner); expressed in transfected cells; host or cells: COS-7
T1 sequence (P10276 183-417 limits assumed): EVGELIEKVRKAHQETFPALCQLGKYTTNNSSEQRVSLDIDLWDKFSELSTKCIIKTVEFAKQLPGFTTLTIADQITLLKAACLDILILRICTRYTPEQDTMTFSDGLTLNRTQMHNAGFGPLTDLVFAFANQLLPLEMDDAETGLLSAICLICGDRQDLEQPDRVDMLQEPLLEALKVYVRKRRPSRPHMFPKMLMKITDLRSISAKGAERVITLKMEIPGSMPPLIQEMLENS
As to the kind of experiment: Transactivation assay for RAR alpha (gal4-RAR fusion, luciferase reporter, COS-7 cells). The conditions noted are these: for RARα/RARβ ratio (*): fold-selectivity for RARα over RARβ; for RARα activity ratio: ratio of test compound EC50 to that of atRA on the same plate. The method in brief: (§1)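 COS-7 cells co-transfected with gal4–RAR ligand-binding-domain fusion and pFR-luc reporter, then treated with compound in phenol-red-free DMEM (1% DMSO) for about one day. Luciferase read after lysis with BrightGlo; EC50 values from replicate experiments given as a ratio of means.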
On the technique in general: A reporter such as luciferase makes a cellular process visible.

Experiment [2] addresses T2, RARβ (Homo sapiens, UniProt P10826).
T2 construct: gal4 (fusion partner); expressed in transfected cells; host or cells: COS-7
T2 sequence (P10826 183-417 limits assumed): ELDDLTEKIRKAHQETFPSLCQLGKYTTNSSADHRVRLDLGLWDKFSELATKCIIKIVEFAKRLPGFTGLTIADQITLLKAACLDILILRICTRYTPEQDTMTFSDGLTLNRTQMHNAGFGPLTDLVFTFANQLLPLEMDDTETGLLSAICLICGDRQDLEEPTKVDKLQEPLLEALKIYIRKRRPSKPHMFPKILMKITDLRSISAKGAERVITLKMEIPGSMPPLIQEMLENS
As to the kind of experiment: Transactivation assay for RAR beta (gal4-RAR fusion, luciferase reporter, COS-7 cells). To be noted: ratio of test compound EC50 to that of atRA; inactive = no agonist action at the highest concentration tested. Summed up: as §1

In experiment [3] the target is T3, RARγ (Homo sapiens, UniProt P13631).
T3 construct: gal4 (fusion partner); expressed in transfected cells; host or cells: COS-7
T3 sequence (P13631 185-419 limits assumed): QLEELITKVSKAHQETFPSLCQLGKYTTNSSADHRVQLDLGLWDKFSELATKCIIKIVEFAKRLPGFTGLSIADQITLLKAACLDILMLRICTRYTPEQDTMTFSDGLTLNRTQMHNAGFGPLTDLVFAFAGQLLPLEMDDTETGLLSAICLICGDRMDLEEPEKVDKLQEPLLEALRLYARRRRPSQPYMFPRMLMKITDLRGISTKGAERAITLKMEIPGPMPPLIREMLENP
Nature of the experiment: Transactivation assay for RAR gamma (gal4-RAR fusion, luciferase reporter, COS-7 cells). The conditions noted are these: ratio of test compound EC50 to that of atRA; inactive = no agonist action at the highest concentration tested. The method in brief: as §1

Structures are written as SMILES.

Regarding `Cc1cc(NC(=O)c2cc(F)c(OC(C)C)c(Cl)c2)ccc1C(=O)O` [AAA-074, 4-(3-Chloro-5-fluoro-4-isopropoxybenzamido)-2-methylbenzoic acid], in experiment [1], the “RARα/RARβ ratio (*)” value is given as 210 and the RARα activity ratio came to 154. The RARβ activity ratio in experiment [2] is reported as 32400. Further, in experiment [3], the RARγ activity ratio is 14500.

Turning to `COc1c(Cl)cc(C(=O)Nc2ccc(C(=O)O)c(C)c2)cc1OC(C)C` [AAA-075, 4-(3-Chloro-5-isopropoxy-4-methoxybenzamido)-2-methylbenzoic acid], in experiment [1], the “RARα/RARβ ratio (*)” value is on record as 241 and the RARα activity ratio came out at 4.7. The RARβ activity ratio in experiment [2] is recorded as 1134. The RARγ activity ratio in experiment [3] is recorded as 2394.

For the compound `COc1c(Cl)cc(C(=O)Nc2ccc(C(=O)O)c(F)c2)cc1OC(C)C` [AAA-077, 4-(3-Chloro-5-isopropoxy-4-methoxybenzamido)-2-fluorobenzoic acid], in experiment [1], the “RARα/RARβ ratio (*)” value was found to be 609 and the RARα activity ratio came to 6.7. For the same compound, the RARβ activity ratio in experiment [2] is listed as 4082. The RARγ activity ratio in experiment [3] is given as 117857.

In the case of `CCOc1c(Cl)cc(C(=O)Nc2ccc(C(=O)O)c(F)c2)cc1OC(C)C` [AAA-079, 4-(3-Chloro-4-ethoxy-5-isopropoxybenzamido)-2-fluorobenzoic acid], in experiment [1], the “RARα/RARβ ratio (*)” value amounted to 487 and the RARα activity ratio amounted to 1.1. The RARβ activity ratio in experiment [2] stood at 536. Moreover, the RARγ activity ratio in experiment [3] was 6786.

On to `CCOc1c(Cl)cc(C(=O)Nc2ccc(C(=O)O)c(C)c2)cc1OC(C)C` [AAA-080, 4-(3-Chloro-4-ethoxy-5-isopropoxybenzamido)-2-methylbenzoic acid], for which the RARα activity ratio in experiment [1] came to 1.6. Besides, in experiment [2], the RARβ activity ratio is recorded as 318. Besides, the RARγ activity ratio in experiment [3] was 17460.

Turning to `CCOc1c(Cl)cc(C(=O)Nc2ccc(C(=O)O)c(O)c2)cc1OC(C)C` [AAA-081, 4-(3-Chloro-4-ethoxy-5-isopropoxybenzamido)-2-hydroxybenzoic acid], in experiment [1], the “RARα/RARβ ratio (*)” value amounted to 161 and the RARα activity ratio stood at 9.0. In experiment [2], the RARβ activity ratio was found to be 1453. For the same compound, the RARγ activity ratio in experiment [3] is listed as >27000.

For `CCOc1c(Cl)cc(C(=O)Nc2ccc(C(=O)O)nn2)cc1OC(C)C` [AAA-082, 6-(3-Chloro-4-ethoxy-5-isopropoxybenzamido)pyridazine-3-carboxylic acid], in experiment [1], the “RARα/RARβ ratio (*)” value is listed as 275 and the RARα activity ratio turned out to be 25. In experiment [2], the RARβ activity ratio worked out at 6885. In addition, in experiment [3], the RARγ activity ratio was >56000.

On to `COc1cc(C(=O)Nc2ccc(C(=O)O)cc2)cc(Cl)c1OC(C)C` [AAA-083, 4-(3-Chloro-4-isopropoxy-5-methoxybenzamido)benzoic acid], for which, in experiment [1], the “RARα/RARβ ratio (*)” value is on record as 10 and the RARα activity ratio is reported as 9. The RARβ activity ratio in experiment [2] amounted to 90. For the same compound, the RARγ activity ratio in experiment [3] is 4390.

As for `CCOc1c(Cl)cc(C(=O)Nc2ccc(C(=O)O)cc2)cc1OC` [AAA-084, 4-(3-Chloro-4-ethoxy-5-methoxybenzamido)benzoic acid], in experiment [1], the “RARα/RARβ ratio (*)” value is listed as 234 and the RARα activity ratio amounted to 26. The RARβ activity ratio in experiment [2] was 6087. In experiment [3], the RARγ activity ratio is recorded as >1400.

For `CCOc1c(Cl)cc(C(=O)Nc2ccc(C(=O)O)c(C)c2)cc1OC` [AAA-085, 4-(3-Chloro-4-ethoxy-5-methoxybenzamido)-2-methylbenzoic acid], in experiment [1], the “RARα/RARβ ratio (*)” value worked out at 210 and the RARα activity ratio was determined as 33. Moreover, in experiment [2], the RARβ activity ratio was 6923. In addition, the RARγ activity ratio in experiment [3] is recorded as >8300.

On to `CCOc1cc(C(=O)Nc2ccc(C(=O)O)cc2)cc(Cl)c1OC(C)C` [AAA-086, 4-(3-Chloro-5-ethoxy-4-isopropoxybenzamido)benzoic acid], for which, in experiment [1], the “RARα/RARβ ratio (*)” value is given as 3.1 and the RARα activity ratio was 2.1. Further, in experiment [2], the RARβ activity ratio is recorded as 7. Further, the RARγ activity ratio in experiment [3] was determined as 1203.

As for `CCOc1cc(C(=O)Nc2ccc(C(=O)O)c(C)c2)cc(Cl)c1OC(C)C` [AAA-087, 4-(3-Chloro-5-ethoxy-4-isopropoxybenzamido)-2-methylbenzoic acid], in experiment [1], the “RARα/RARβ ratio (*)” value was 286 and the RARα activity ratio turned out to be 7. For the same compound, the RARβ activity ratio in experiment [2] is on record as 2000. Besides, the RARγ activity ratio in experiment [3] amounted to 11725.

For the compound `CCOc1c(Cl)cc(C(=O)Nc2ccc(C(=O)O)cc2)cc1OCC1CC1` [AAA-089, 4-(3-Chloro-5-(cyclopropylmethoxy)-4-ethoxybenzamido)benzoic acid], in experiment [1], the “RARα/RARβ ratio (*)” value came to 392 and the RARα activity ratio was 1.3. In experiment [2], the RARβ activity ratio is listed as 510. In addition, the RARγ activity ratio in experiment [3] amounted to 2647.

`CCOc1c(Cl)cc(C(=O)Nc2ccc(C(=O)O)c(O)c2)cc1OCC1CC1` [AAA-090, 4-(3-Chloro-5-(cyclopropylmethoxy)-4-ethoxybenzamido)-2-hydroxybenzoic acid]: in experiment [1], the “RARα/RARβ ratio (*)” value was 250 and the RARα activity ratio worked out at 5.0. Further, the RARβ activity ratio in experiment [2] stood at 1250. In experiment [3], the RARγ activity ratio amounted to 367000.

Take `CC(C)Oc1cc(C(=O)Nc2ccc(C(=O)O)c(O)c2)cc(Cl)c1OC(C)C` [AAA-091, 4-(3-Chloro-4,5-diisopropoxybenzamido)-2-hydroxybenzoic acid]: in experiment [1], the “RARα/RARβ ratio (*)” value came out at 135 and the RARα activity ratio was determined as 1.6. Further, in experiment [2], the RARβ activity ratio is recorded as 216. The RARγ activity ratio in experiment [3] came out at 75000.

Regarding `O=C(O)c1ccc(NC(=O)c2cc(Cl)c(OC3CCC3)c(OC3CCC3)c2)cc1` [AAA-092, 4-(3-Chloro-4,5-di(cyclobutyloxy)benzamido)benzoic acid], in experiment [1], the “RARα/RARβ ratio (*)” value turned out to be 27 and the RARα activity ratio is listed as 2. For the same compound, in experiment [2], the RARβ activity ratio was determined as 53. Besides, in experiment [3], the RARγ activity ratio was 1059.

With `Cc1cc(NC(=O)c2cc(Cl)c(OC3CCC3)c(OC3CCC3)c2)ccc1C(=O)O` [AAA-093, 4-(3-Chloro-4,5-di(cyclobutyloxy)benzamido)-2-methylbenzoic acid], in experiment [1], the “RARα/RARβ ratio (*)” value is 46 and the RARα activity ratio is on record as 2.0. Moreover, in experiment [2], the RARβ activity ratio came out at 92. The RARγ activity ratio in experiment [3] amounted to 10833.

With `O=C(Nc1ccc(C(=O)O)c(O)c1)c1cc(Cl)c(OC2CCC2)c(OC2CCC2)c1` [AAA-094, 4-(3-Chloro-4,5-di(cyclobutyloxy)benzamido)-2-hydroxybenzoic acid], in experiment [1], the “RARα/RARβ ratio (*)” value is on record as 2852 and the RARα activity ratio is reported as 0.23. Further, the RARβ activity ratio in experiment [2] stood at 656. Besides, the RARγ activity ratio in experiment [3] was determined as 20000.

For `CC(C)Oc1cc(C(=O)Nc2ccc(C(=O)O)c(F)c2)cc(Cl)c1OC(C)C` [AAA-095, 4-(3-Chloro-4,5-diisopropoxybenzamido)-2-fluorobenzoic acid], in experiment [1], the “RARα/RARβ ratio (*)” value is 34 and the RARα activity ratio amounted to 2.7. Also, the RARβ activity ratio in experiment [2] came out at 92. In experiment [3], the RARγ activity ratio is 812.

As to `CCOc1c(Cl)cc(C(=O)Nc2ccc(C(=O)O)c(C)c2)cc1OC1CCC1` [AAA-096, 4-(3-Chloro-5-(cyclobutoxy)-4-ethoxybenzamido)-2-methylbenzoic acid], in experiment [1], the “RARα/RARβ ratio (*)” value was 67 and the RARα activity ratio is 3.2. Further, the RARβ activity ratio in experiment [2] came out at 215. The RARγ activity ratio in experiment [3] is on record as 7895.

Consider `CCOc1c(Cl)cc(C(=O)Nc2ccc(C(=O)O)c(C)c2)cc1OCC1CC1` [AAA-097, 4-(3-Chloro-5-(cyclopropylmethoxy)-4-ethoxybenzamido)-2-methylbenzoic acid], for which, in experiment [1], the “RARα/RARβ ratio (*)” value is listed as 58 and the RARα activity ratio worked out at 2.6. In addition, in experiment [2], the RARβ activity ratio came out at 151. The RARγ activity ratio in experiment [3] is 100000.

For `COc1c(Cl)cc(C(=O)Nc2ccc(C(=O)O)cc2)cc1OC1CCC1` [AAA-098, 4-(3-Chloro-5-cyclobutoxy-4-methoxybenzamido)benzoic acid], in experiment [1], the “RARα/RARβ ratio (*)” value was 36 and the RARα activity ratio is 12. Further, in experiment [2], the RARβ activity ratio came out at 433. The RARγ activity ratio in experiment [3] worked out at 2955.

Turning to `COc1c(Cl)cc(C(=O)Nc2ccc(C(=O)O)c(C)c2)cc1OC1CCC1` [AAA-099, 4-(3-Chloro-5-cyclobutoxy-4-methoxybenzamido)-2-methylbenzoic acid], in experiment [1], the “RARα/RARβ ratio (*)” value was 59 and the RARα activity ratio is on record as 11. The RARβ activity ratio in experiment [2] was 655. Besides, in experiment [3], the RARγ activity ratio is recorded as 89.
